Calls of active or inactive are those of the source.
Key:
[1] = molecular target: UDP-galactopyranose mutase (Mycobacterium tuberculosis, UniProt P9WIQ1); test: Inhibitors of Mycobacterium tuberculosis UDP-galactopyranose mutase (UGM) enzyme Measured in Biochemical System Using Plate Reader - 2105-02_Inhibitor_Dose_CherryPick_Activity. [Related pubchem assays (depositor defined):AID504439]
Keap1/Nrf2 = Keap1/Nrf2 (Homo sapiens, UniProt Q14145); test: disruptors of Keap1 binding to Nrf2 peptide – biochemical, fluorescence polarization, cherry-picked samples, dose response (AID 588683)
Chain of Keap1/Nrf2 (Q16236 whole entry): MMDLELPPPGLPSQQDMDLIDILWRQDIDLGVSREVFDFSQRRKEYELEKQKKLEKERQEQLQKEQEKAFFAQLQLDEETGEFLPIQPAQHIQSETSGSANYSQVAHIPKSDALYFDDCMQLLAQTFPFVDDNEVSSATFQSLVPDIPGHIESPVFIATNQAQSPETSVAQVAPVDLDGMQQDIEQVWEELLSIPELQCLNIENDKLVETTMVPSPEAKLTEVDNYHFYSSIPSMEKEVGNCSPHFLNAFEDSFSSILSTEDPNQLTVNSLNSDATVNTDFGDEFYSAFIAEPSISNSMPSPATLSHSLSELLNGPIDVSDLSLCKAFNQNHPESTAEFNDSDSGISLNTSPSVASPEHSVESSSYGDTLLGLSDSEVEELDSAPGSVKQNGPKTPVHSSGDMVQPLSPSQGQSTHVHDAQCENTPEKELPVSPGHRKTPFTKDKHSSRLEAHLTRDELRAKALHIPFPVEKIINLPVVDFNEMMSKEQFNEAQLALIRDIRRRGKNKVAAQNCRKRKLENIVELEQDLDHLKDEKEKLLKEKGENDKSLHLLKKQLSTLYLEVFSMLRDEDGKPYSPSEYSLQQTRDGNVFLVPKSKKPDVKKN
Chain of Keap1/Nrf2 (Q14145 whole entry): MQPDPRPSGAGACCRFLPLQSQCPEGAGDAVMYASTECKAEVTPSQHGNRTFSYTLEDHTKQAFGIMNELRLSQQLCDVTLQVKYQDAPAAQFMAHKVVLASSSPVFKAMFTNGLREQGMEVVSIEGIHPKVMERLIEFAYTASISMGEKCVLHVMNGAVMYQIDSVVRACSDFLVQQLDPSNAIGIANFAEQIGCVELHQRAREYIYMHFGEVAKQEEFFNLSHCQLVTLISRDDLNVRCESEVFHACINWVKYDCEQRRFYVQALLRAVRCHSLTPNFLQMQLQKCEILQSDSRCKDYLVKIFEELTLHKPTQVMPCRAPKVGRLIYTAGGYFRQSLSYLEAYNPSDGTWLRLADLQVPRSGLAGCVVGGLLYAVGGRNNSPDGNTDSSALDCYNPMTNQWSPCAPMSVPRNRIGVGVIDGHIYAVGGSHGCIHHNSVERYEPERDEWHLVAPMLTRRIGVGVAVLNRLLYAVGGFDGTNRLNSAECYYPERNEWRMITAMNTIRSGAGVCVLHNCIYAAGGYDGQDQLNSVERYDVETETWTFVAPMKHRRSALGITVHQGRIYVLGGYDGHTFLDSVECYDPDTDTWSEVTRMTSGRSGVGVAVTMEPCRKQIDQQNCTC

ORF 73 = molecular target: T1, ORF 73 (Human herpesvirus 8, UniProt O40947); test: KSHV LANA DNA-binding disruption – biochemical, fluorescence polarization, cherry-picked samples, dose response (AID 504725); design: species or system Human gammaherpesvirus 8;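 also: fluorescence polarization of a labeled DNA duplex reporting LANA DNA binding; potency is for inhibitors that block LANA binding to the DNA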
T1 sequence (O40947 whole entry): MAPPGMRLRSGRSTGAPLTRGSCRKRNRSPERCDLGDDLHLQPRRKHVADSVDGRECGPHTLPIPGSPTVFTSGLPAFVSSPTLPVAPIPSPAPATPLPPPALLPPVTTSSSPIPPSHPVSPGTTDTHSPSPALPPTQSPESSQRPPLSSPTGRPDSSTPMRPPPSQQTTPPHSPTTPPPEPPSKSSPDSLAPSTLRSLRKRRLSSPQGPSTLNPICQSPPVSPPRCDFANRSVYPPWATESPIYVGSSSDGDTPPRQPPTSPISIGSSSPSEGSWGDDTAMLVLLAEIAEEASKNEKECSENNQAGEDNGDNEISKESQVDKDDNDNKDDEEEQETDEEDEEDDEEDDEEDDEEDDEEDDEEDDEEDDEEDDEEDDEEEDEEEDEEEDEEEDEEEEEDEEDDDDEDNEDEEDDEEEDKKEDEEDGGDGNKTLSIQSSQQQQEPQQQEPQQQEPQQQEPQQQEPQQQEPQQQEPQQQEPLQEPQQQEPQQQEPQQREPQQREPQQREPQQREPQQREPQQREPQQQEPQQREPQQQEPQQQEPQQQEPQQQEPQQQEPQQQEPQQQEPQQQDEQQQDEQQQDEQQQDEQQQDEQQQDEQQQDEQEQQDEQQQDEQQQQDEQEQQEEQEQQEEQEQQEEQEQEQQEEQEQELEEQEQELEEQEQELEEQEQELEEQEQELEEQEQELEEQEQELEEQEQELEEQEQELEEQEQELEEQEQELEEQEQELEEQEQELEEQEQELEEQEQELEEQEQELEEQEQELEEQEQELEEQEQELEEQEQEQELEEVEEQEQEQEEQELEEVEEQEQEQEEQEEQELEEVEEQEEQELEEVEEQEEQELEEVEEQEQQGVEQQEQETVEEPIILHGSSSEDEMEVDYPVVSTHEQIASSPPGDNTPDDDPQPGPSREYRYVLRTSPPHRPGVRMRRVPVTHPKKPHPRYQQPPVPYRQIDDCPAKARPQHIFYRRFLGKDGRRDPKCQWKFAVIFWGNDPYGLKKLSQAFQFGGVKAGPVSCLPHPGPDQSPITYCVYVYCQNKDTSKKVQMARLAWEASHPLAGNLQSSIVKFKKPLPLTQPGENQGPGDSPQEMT

[2] = reduction of Shn3 3'UTR-driven luciferase in osteoblasts – cell-based, Clone20 osteoblasts, firefly luciferase, cherry-picked, dose response (AID 624132); assay type: functional;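 also: firefly luciferase luminescence from reporter carrying the Shn3 3'UTR in osteoblasts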
[3] = HEK-293T viability loss, compound-treated – cell-based, uHTS hits, cytotoxicity control for B/T-cell NF-kB inhibitor project, dose response (AID 489019); assay type: functional;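 also: IC50 reflects cytotoxicity as loss of cell viability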
Jurkat = test: blockers of NF-kB activation in T cells – Jurkat, luciferase reporter, luminescence, B- and T-cell, dose response (AID 489004); assay type: functional, cell-based; conditions: Homo sapiens;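 also: NF-kB luciferase reporter Jurkat cells stimulated with PMA plus ionomycin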
[4] = non-specific 3'UTR reporter inhibition in Clone20-Shn3RL – cell-based, Renilla luciferase, cherry-picked, counter-screen for Shn3 inhibitor project, dose response (AID 624133); assay type: functional
[5] = loss of viability in HepG2 cells – cell-based, CellTiter-Glo, cherry-picked, cytotoxicity control for Shn3 inhibitor project, dose response (AID 624134); assay type: functional
CAAX prenyl protease 2 = molecular target: T2, CAAX prenyl protease 2 (Homo sapiens, UniProt Q9Y256); test: inhibition of Ras-converting CAAX protease Rce1 – biochemical, yeast membranes, quenched-peptide fluorescence, cherry-pick, dose response (AID 588849)
T2 sequence (Q9Y256 whole entry): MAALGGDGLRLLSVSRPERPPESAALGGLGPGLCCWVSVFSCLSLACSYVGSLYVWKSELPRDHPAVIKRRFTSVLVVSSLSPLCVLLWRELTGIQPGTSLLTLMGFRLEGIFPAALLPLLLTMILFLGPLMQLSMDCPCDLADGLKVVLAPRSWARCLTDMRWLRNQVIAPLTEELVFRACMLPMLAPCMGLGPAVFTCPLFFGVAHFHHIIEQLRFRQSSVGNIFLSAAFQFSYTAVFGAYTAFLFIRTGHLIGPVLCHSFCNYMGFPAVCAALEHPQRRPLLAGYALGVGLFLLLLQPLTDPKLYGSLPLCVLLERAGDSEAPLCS

[6] = reduced cellular PGC1a acetyl-lysine signal – cell-based, cherry-picked samples, dose response (AID 720514); assay type: functional;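 also: potency may reflect raised or lowered acetylation signal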
[7] = molecular target: T3, High affinity choline transporter 1 (Homo sapiens, UniProt Q9GZV3); test: human choline transporter blockers, potency – cell-based, 5-point CRC, membrane potential dye, dose response (AID 504840); assay type: functional
T3 sequence (Q9GZV3 whole entry): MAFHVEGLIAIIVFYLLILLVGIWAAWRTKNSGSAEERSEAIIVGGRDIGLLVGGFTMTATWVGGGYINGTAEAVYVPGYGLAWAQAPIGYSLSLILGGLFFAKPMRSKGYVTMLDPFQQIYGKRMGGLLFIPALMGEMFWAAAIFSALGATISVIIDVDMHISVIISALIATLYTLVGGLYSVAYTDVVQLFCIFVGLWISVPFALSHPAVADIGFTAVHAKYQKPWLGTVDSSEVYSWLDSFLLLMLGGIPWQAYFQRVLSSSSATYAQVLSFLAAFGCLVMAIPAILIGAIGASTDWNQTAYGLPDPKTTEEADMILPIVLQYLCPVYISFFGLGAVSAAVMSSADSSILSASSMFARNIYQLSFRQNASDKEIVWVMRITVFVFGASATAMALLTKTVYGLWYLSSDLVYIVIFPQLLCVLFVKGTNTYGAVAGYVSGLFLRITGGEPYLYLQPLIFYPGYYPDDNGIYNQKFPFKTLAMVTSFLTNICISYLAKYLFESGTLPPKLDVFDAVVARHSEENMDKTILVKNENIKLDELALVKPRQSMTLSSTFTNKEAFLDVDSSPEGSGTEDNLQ

[8] = molecular target: T4, Corticotropin-releasing factor receptor 2/Corticotropin-releasing factor-binding protein (Homo sapiens, UniProt P24387+Q13324); test: Dose Response confirmation of uHTS hits for small molecule antagonists of the CRF-binding protein and CRF-R2 receptor complex.; assay type: functional; conditions: read-out: IC50_Mean
T4 sequence (Q13324 whole entry): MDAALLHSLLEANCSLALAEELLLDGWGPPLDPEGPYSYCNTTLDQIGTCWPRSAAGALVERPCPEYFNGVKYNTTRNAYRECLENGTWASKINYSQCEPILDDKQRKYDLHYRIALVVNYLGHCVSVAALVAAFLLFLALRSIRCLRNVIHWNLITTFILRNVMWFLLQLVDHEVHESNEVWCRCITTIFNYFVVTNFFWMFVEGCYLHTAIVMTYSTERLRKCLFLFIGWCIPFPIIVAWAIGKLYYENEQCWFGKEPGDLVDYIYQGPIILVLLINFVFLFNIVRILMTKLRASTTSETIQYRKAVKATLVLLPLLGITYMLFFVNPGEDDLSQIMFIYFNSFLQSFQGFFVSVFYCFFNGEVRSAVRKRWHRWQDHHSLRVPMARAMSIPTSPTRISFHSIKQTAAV
T4 sequence (P24387 whole entry): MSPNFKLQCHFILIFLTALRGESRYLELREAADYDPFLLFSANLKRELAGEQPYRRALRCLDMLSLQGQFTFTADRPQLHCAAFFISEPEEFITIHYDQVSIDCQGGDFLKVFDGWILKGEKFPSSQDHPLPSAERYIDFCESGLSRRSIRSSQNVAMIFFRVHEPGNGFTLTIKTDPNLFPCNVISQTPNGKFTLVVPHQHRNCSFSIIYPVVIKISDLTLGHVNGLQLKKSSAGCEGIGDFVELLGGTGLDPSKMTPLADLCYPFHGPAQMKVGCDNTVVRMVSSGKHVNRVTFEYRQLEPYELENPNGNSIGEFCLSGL

[9] = molecular target: T4, Corticotropin-releasing factor receptor 2/Corticotropin-releasing factor-binding protein; test: activators of CRF receptor 2 with binding protein – uHTS hits, confirmation (AID 602473); assay type: functional; conditions: read-out: EC50_Mean
cells [10] = assay type: functional, cell-based
[11] = viability loss in HeLa cells – cytotoxicity control for MgcRacGAP inhibitor project, dose response (AID 624300); assay type: functional
[12] = Luminescence Cell-Based Dose Response HTS to Identify Inhibitors of 5'UTR Stem-Loop Driven Prion Protein mRNA Translation in H4 Neuroglioblastoma Cells. [Related pubchem assays: 1827 (Project Summary), 1813 (Primary HTS)]; assay type: functional
[13] = molecular target: Heat shock protein HSP 90-alpha (Homo sapiens, UniProt P07900); assay type: functional, organism-based
cells [14] = assay type: functional, cell-based; remark: listed apart in the source
[15] = microbe, parasite or virus in culture; assay type: functional; conditions: Mycobacterium tuberculosis
[16] = molecular target: T5, COUP transcription factor 2 (Homo sapiens, UniProt P24468); test: Luminescence-based cell-based high throughput dose response assay to identify inhibitors of COUP-TFII (NR2F2).; assay type: functional;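 also: HEK293 cells transiently cotransfected with COUP-TFII expression vector and reporter; luciferase reporter luminescence driven by COUP-TFII from the pX2-168 reporter plasmid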
T5 sequence (P24468 whole entry): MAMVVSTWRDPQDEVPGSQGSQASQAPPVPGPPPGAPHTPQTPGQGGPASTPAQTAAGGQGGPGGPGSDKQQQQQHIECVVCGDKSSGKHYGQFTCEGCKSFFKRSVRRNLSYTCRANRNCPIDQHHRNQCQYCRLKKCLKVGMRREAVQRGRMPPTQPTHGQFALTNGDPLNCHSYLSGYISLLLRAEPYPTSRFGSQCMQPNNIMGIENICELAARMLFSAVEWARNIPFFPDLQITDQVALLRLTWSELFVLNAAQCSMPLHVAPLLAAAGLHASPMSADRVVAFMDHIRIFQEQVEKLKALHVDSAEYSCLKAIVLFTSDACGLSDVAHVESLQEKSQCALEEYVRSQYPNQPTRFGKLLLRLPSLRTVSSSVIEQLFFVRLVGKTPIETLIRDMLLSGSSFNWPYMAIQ

[17] = molecular target: T6, Rac GTPase-activating protein 1 (Homo sapiens, UniProt Q9H0H5); test: blockers of MgcRacGAP-driven Rac1 GTP hydrolysis – biochemical, ADP Hunter fluorescence, primary and confirmatory, confirmation (AID 624330); assay type: functional
T6 sequence (Q9H0H5 whole entry): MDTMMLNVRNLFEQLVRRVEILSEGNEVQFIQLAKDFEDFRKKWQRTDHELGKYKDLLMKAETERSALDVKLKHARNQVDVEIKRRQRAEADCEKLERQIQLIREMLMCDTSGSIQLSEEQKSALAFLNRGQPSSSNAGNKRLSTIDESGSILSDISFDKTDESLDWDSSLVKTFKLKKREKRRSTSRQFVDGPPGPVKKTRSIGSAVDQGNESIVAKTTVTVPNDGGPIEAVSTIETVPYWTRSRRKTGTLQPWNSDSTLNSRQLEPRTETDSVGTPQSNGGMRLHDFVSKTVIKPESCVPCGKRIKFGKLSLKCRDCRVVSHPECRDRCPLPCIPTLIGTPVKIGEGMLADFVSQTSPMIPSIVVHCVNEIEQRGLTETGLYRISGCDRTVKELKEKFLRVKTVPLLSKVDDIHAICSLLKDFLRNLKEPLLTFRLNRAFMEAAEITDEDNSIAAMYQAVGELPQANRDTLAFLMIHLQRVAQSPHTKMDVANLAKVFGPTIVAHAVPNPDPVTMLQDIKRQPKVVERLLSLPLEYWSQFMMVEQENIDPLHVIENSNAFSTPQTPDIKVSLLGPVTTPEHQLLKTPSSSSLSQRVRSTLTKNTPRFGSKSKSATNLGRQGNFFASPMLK

Troponin, cardiac muscle = Troponin, cardiac muscle (Homo sapiens, UniProt P19429+P45379+P63316); test: Fluorescence-based biochemical high throughput dose response assay for activators of the calcium sensitivity of cardiac Regulated Thin Filaments (RTF). [Related pubchem assays (depositor defined):AID493008, AID493018, AID504382, AID504383]; assay type: protein-complex assay
[18] = molecular target: T7, Calpain-2 catalytic subunit (Sus scrofa, UniProt P43367); test: m-calpain protease blockers, concentration series – biochemical, fluorogenic peptide substrate, dose response (AID 1420); assay type: functional
T7 sequence (P43367 whole entry): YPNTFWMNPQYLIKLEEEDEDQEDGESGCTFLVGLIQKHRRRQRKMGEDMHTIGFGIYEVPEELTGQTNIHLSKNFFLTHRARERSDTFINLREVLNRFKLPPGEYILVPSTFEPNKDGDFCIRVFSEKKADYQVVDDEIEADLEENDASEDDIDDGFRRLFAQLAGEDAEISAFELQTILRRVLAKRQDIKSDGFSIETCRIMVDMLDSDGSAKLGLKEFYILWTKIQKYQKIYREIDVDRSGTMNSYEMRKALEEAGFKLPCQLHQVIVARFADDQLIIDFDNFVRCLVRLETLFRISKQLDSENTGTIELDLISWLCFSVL

Chain of UDP-galactopyranose mutase (P9WIQ1 whole entry): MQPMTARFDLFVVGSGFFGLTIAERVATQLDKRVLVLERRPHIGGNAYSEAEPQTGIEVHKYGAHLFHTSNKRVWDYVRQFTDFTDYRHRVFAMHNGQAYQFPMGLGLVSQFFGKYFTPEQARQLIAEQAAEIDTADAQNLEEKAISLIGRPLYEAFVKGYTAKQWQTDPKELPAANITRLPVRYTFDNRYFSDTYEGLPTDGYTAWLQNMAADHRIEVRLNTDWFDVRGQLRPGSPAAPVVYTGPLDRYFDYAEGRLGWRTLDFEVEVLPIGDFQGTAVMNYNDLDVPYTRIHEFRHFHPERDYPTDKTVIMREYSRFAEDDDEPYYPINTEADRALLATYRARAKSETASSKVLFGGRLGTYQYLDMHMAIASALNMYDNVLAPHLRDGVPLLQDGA

Nc1ccc2nc3c(=O)n(C4CCCCC4)c(=O)[nH]c3nc2c1
AC50 [1]: 2.64 µM (active)
AC50 (Keap1/Nrf2): 9.04 µM (active)
AC50 (ORF 73): 1.42 µM (active)

CC1(c2ccc3ccccc3c2)NC(=O)N(CC(=O)N2CCN(Cc3ccc(C#N)cc3)CC2)C1=O (stereo unspecified)
AC50 [2]: 416 nM (active)
IC50 [3]: > 80 µM (inactive)
IC50 (Jurkat): > 80 µM (inactive)
AC50 [4]: 1.04 µM (active)
AC50 [5]: < 260 nM (active)

CC(=O)NN1C(=O)c2ccccc2NC1c1ccccc1 (stereo unspecified)
AC50 (CAAX prenyl protease 2): > 100 µM (inactive)

Cc1cccc(NS(=O)(=O)c2cccc(C(=O)NCC(c3ccco3)N3CCCCC3)c2)c1 (stereo unspecified)
AC50 [6]: 32.2 µM (active)
IC50 [7]: 22 µM (active)

O=c1[nH]c(=O)n(-c2ccc(F)cc2)c2c1C(C(F)(F)F)(C(F)(F)F)N=C(c1ccc(F)cc1)N2
IC50 [8]: 4.69 µM (active)
IC50 [7]: 12 µM (active)
EC50 [9]: > 53 µM (inactive)

CCN1/C(=C/c2ccc3cc(C)ccc3[n+]2CC)Sc2ccccc21
EC50 (cells [10]): > 350 µM (not active)
CC50 [11]: 12.5 µM (active)
EC50 [12]: > 120 µM (not active)
IC50 [3]: > 80 µM (inactive)
AC50 [13]: 7.73 µM (active)
EC50 (cells [14]): > 350 µM (not active)
CC50 [15]: 1.92 µM (active)
IC50 [16]: 1.55 µM (active)
IC50 (Jurkat): 2.6 µM (active)
IC50 [17]: 59.5 µM (active)
EC50 (Troponin, cardiac muscle): 10.4 µM (inactive)
IC50 [18]: 16.4 µM (not active)
